Data as given in the NIST ThermoML archive (doi:10.1016/j.jct.2017.03.027).
Numbers after ± are expanded uncertainties.

Assay: molar heat capacity at constant pressure; xn = mol fraction of the nth substance listed
Details: 100 kPa, Liquid, Large sample (1 g) DSC

Cc1ccc(C(C)C)cc1 [1-(1-methylethyl)-4-methylbenzene] + CCO
molar heat capacity at constant pressure [J/K/mol]
Details	298.6 K	308.5 K	318.5 K	328.4 K
x1 = 0.0494	121.2 ± 2	126.1 ± 2.1	130.8 ± 2.1	135.6 ± 2.2
x1 = 0.0995	130 ± 2.1	134.7 ± 2.2	140.1 ± 2.3	145.9 ± 2.4
x1 = 0.2	146.5 ± 2.4	152.2 ± 2.5	157.8 ± 2.6	163.8 ± 2.7
x1 = 0.3009	162.2 ± 2.6	168.5 ± 2.7	174.7 ± 2.8	181 ± 2.9
x1 = 0.4037	177.7 ± 2.9	183.8 ± 3	190.2 ± 3.1	197 ± 3.2
x1 = 0.5034	192.6 ± 3.1	199 ± 3.2	205.4 ± 3.3	211.9 ± 3.4
x1 = 0.6023	205.5 ± 3.3	211.8 ± 3.4	219.4 ± 3.6	225.1 ± 3.7
x1 = 0.7017	217.6 ± 3.5	224.3 ± 3.6	230.7 ± 3.8	236.9 ± 3.9
x1 = 0.802	229.2 ± 3.7	235.3 ± 3.8	240.9 ± 3.9	247 ± 4
x1 = 0.897	238.6 ± 3.9	243.1 ± 4	248.4 ± 4	253.8 ± 4.1
x1 = 0.9509	240.2 ± 3.9	243.9 ± 4	248.9 ± 4	254.1 ± 4.1
x1 = 1	240.3 ± 3.9	244.7 ± 4	249.4 ± 4.1	254.4 ± 4.1
